This passage reports IC50 results from patent US20170291890A1 (Epizyme, Inc., priority 2014, published 2017).

This assay has as its target T1, KDM5A (Homo sapiens, UniProt P29375).
T1 construct: C-terminal FLAG-tagged KDM5A^1-1090 was purchased from BPS Biosciences; FLAG (C); purchased BPS Biosciences
T1 sequence (P29375 1-1090): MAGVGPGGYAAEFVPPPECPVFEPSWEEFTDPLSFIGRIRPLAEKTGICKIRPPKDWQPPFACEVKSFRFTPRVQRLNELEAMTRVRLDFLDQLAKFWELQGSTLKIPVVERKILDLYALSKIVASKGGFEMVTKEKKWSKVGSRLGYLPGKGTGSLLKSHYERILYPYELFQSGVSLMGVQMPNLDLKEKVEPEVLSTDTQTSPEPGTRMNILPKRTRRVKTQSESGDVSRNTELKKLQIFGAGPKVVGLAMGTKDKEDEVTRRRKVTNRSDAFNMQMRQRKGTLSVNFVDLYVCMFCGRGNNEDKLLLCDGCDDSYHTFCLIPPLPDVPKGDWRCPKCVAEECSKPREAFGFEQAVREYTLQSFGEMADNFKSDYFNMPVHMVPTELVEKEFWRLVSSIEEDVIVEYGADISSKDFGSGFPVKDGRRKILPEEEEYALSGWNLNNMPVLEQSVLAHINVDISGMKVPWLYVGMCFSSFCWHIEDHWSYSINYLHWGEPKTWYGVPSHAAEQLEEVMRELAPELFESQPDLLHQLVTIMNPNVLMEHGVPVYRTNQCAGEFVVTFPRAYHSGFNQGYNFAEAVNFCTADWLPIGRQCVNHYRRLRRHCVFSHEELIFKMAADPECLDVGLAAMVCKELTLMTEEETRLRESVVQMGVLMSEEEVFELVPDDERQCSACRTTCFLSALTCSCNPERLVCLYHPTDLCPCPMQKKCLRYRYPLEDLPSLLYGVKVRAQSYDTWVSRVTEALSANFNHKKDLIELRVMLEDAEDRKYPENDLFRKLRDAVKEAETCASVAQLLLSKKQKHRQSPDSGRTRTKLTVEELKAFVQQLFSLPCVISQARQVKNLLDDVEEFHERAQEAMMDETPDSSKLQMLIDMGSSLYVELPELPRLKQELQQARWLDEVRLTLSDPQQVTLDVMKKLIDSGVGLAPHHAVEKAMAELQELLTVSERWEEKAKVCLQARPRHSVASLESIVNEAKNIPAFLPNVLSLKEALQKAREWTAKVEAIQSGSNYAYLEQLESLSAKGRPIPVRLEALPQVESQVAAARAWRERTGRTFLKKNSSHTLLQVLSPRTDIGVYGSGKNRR
Nature of the assay: KDM5A Assay (SAMDI mass spectrometry demethylase assay). It counts as biochemical. To be noted: C-terminal FLAG-tagged KDM5A 1-1090, read-out: 5A IC50. The method, boiled down:
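FLAG-tagged KDM5A 1-1090 (20 nM) preincubated 30 min with compound in pH 8.0 HEPES buffer with ascorbate, Fe(II), TCEP, then reacted 150 min at 25 °C with H3K4me3 peptide (250 nM) and 2-oxoglutarate (15 μM). Formic acid-quenched; SAMDI-MS substrate/product AUC conversion; IC50 from dose-response.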

Each structure is given as a SMILES string. Where two headings read alike, the source gives them in different places. Bounds are passed on as bounds.

With `Cn1ncc(-c2cccnc2)c1Nc1cnccc1C(=O)O` [Compound 4], the IC50 (usually the midpoint of a concentration-inhibition curve) (numeric bound) is above 100000 nM.
Turning to `Cn1nc(Nc2cnccc2C(=O)O)cc1-c1ccccc1` [Compound 5], the IC50 (class symbols) lay within 100 to 1000 nM.
For `Cc1nn([C@H]2CC[C@@H](N)CC2)cc1Nc1cnccc1C(=O)O` [Compound 80, 3-((1-((cis)-4-aminocyclohexyl)-3-methyl-1H-pyrazol-4-yl)amino)isonicotinic acid], the IC50 (class symbols) was 1 to 100 nM.
On the same count and under the same terms, for `CCc1c(Nc2cnccc2C(=O)O)cnn1-c1ccccc1` [Compound 81, 3-((5-ethyl-1-phenyl-1H-pyrazol-4-yl)amino)isonicotinic acid] the value was 1000 to 10000 nM; for `Cc1ccc(-n2cc(Nc3cnccc3C(=O)O)c(C)n2)cc1` [Compound 82], 1 to 100 nM; for `NC1CCC(n2nc(-c3cccc(Cl)c3)cc2Nc2cnccc2C(=O)O)CC1` (centres unmarked) [Compound 85, 3-((1-(4-aminocyclohexyl)-3-(3-chlorophenyl)-1H-pyrazol-5-yl)amino)isonicotinic acid], 1000 to 10000 nM.
In the case of `O=C(O)c1ccncc1Nc1cc(-c2cccc(Cl)c2)n(C2CCC3(CC2)OCCO3)n1` [Compound 86, 3-((5-(3-chlorophenyl)-1-(1,4-dioxaspiro[4.5]decan-8-yl)-1H-pyrazol-3-yl)amino)isonicotinic acid], the IC50 (class symbols) lay in the range of 1000 to 10000 nM.
On the same count and under the same terms, for `NC1CCC(n2nc(Nc3cnccc3C(=O)O)cc2-c2cccc(Cl)c2)CC1` (centres unmarked) [Compound 87, 3-((1-(4-aminocyclohexyl)-5-(3-chlorophenyl)-1H-pyrazol-3-yl)amino)isonicotinic acid] the value was 1000 to 10000 nM; for `O=C(O)c1ccncc1Nc1nn(-c2ccccc2)cc1-c1ccncc1` [Compound 88, 3-((1-phenyl-4-(pyridin-4-yl)-1H-pyrazol-3-yl)amino) isonicotinic acid], 100 to 1000 nM.
The same measure, in the same setting: to `Cc1nn(C2CCN(CC3CC3)CC2)cc1Nc1cnccc1C(=O)O` [Compound 89, 3-(1-(1-(cyclopropylmethyl)piperidin-4-yl)-3-methyl-1H-pyrazol-4-ylamino)isonicotinic acid] belongs 100 to 1000 nM; to `Cc1c(Nc2cnccc2C(=O)O)cnn1C1CCN(CC2CC2)CC1` [Compound 90, 3-(1-(1-(cyclopropylmethyl)piperidin-4-yl)-5-methyl-1H-pyrazol-4-ylamino) isonicotinic acid], 1000 to 10000 nM; to `Cc1nn(C2CCN(C3CN(C)C3)CC2)cc1Nc1cnccc1C(=O)O` [Compound 91, 3-(3-methyl-1-(1-(1-methylazetidin-3-yl)piperidin-4-yl)-1H-pyrazol-4-ylamino)isonicotinic acid], 100 to 1000 nM.
On the same count and under the same terms, to `Cc1c(Nc2cnccc2C(=O)O)cnn1C1CCN(C2CN(C)C2)CC1` [Compound 92, 3-(5-methyl-1-(1-(1-methylazetidin-3-yl)piperidin-4-yl)-1H-pyrazol-4-ylamino)isonicotinic acid] belongs 1000 to 10000 nM.
Consider `COC(=O)c1ccncc1Nc1cn(C2CCN(C3CCC3)CC2)nc1C` [Compound 93, methyl 3-((1-(1-cyclobutylpiperidin-4-yl)-3-methyl-1H-pyrazol-4-yl)amino)isonicotinate], for which the IC50 (class symbols) fell in the range of 10000 to 100000 nM.
Same read-out and setting: for `Cc1nn(C2CCN(C3CCC3)CC2)cc1Nc1cnccc1C(=O)O` [Compound 94, 3-(1-(1-cyclobutylpiperidin-4-yl)-3-methyl-1H-pyrazol-4-ylamino)isonicotinic acid] the value was 100 to 1000 nM; for `COC(=O)c1ccncc1Nc1cnn(C2CCN(C3CCC3)CC2)c1C` [Compound 95, methyl 3-((1-(1-cyclobutylpiperidin-4-yl)-5-methyl-1H-pyrazol-4-yl)amino)isonicotinate], 10000 to 100000 nM.
As for `CN1CCC(n2ncc(Nc3cnccc3C(=O)O)c2-c2ccccc2)CC1` [Compound 126, 3-(1-(1-methylpiperidin-4-yl)-5-phenyl-1H-pyrazol-4-ylamino) isonicotinic acid], under “class symbols”, the IC50 was 1000 to 10000 nM.
